Experiments:
[1] = tested on: Fischer or Sprague-Dawley rats; conditions: cited from earlier work; for alopecia in young rats after treatment: starting from the head, around one to two weeks after treatment
[2] = tested on: Sprague-Dawley rats; conditions: ip chemotherapy
Description: 8-day old Sprague-Dawley rats are treated topically with liposome compositions as described in Example 1 containing a compound such as p21 to be screened for its effect on chemotherapy-induced alopecia. The liposome composition is provided at a concentration of 100 μg/ml in 1 mM β-mercaptoethanol, for 2 days. […] The rats are then treated with cyclophosphamide, CTX (35 mg/kg, ip once) with the combination of CTX (25 mg/kg)+doxorubicin, DOX (2.5 mg/kg), ip once per day for 3 days, respectively. One rat pup without chemotherapy was used as control.

[3] = tested on: patients; conditions: cited from earlier work
[4] = tested on: hair follicles; assay: Liposome-mediated delivery of calcein dye to hair follicles in mouse skin histoculture; type: cell-based
Description: For the histoculture of skin, pieces of shaved outbred white-haired-mouse or nude-mouse skin, approximately 2×5×2 mm, were harvested under a dissection microscope and then histocultured on collagen-gel supported sponge as described by Li et al., Proc. Natl. Acad. Sci. USA 88:1908-1912, 1991. Histoculture was continued for about 24 hours prior to contacting the skin histoculture with the liposome preparation.
Liposomes were prepared by sonication of about 15 mg or 25 mg, preferably 25 mg, phosphatidylcholine (PC) emulsion in phosphate buffered saline (PBS) containing about 20 mg/ml of the fluorescent dye calcein. Liposomes were also prepared by entrapping NBD-phosphatidylcholine fluorescent dye using an emulsion with about 20 mg/ml of the NBD formulation. Liposomes were separated from the non-entrapped dye by gel-filtration on a Sepharose 4B column diluted with phosphate buffered saline. The amount of entrapped dye was measured spectrofluorometrically. Two types of PC were used: egg PC (EPC) and dipalmitoyl PC (DPPC). Due to their phase transition temperatures, liposomes made of DPPC are in a gel phase at about 37° C. while liposomes prepared from EPC are in a liquid-crystalline state.
Samples of the mouse skin histocultures were incubated for about 20 minutes with each of the liposomes and with a solution of “free” calcein dye at the same concentrations used in the liposome preparation. After the tissue samples were thoroughly washed with culture medium free of liposomes to remove excess liposome composition, the specimens were analyzed with a BioRad MRC 600 laser confocal microscope with a BHS filter block, which excites the tissue at 488 nm and passes the light emitted at 520 nm. These parameters are close to the excitation and emission maxima reported for calcein, Haugland, (Ed.) Molecular probes. Handbook of Fluorescent Probes and Research Chemicals, Molecular Probes, Inc., Eugene, (1989-1991 and 1992-1993). There is no autofluorescence of tissue when these emission and excitation wavelengths are used. […]

[5] = tested on: hair follicles; conditions: mouse, in vivo
Description: Liposomes were prepared essentially as described in Example 1. […] Thereafter, 0.5 ml of either calcein (10 mg/ml) or melanin (10 mg/ml) solution, respectively, were added to sonicated PC liposome composition, and further sonicated for 6 minutes, followed by freeze-thawing three times. […] A sample of about 250 microliters of the liposome composition entrapping calcein or melanin was applied directly to the dorsal skin on the mouse in an area of approximately 1.5 cm^2 using a sutured band-aid patch to immobilize the liposome composition onto the skin and to prevent evaporation. The liposome composition was re-applied every 1 hour for 6 hours, with the last application remaining for a total of 24 hours at which time the skin samples were taken by punch biopsy for analysis. For time course experiments, one mouse was used for each time period, with 6 punch biopsies taken from each mouse, at 0.5, 1, 2, 4, 6, 16 and 24 hours. […] Skin samples containing calcein were also analyzed by spectrofluorimetry to determine the effective concentration of a delivered beneficial compound into a selected tissue. […] The sonicated sample was then centrifuged for 10 minutes in a microcentrifuge at 14,000×g, and the resulting supernatant was measured by spectrofluorimetry at an excitation wavelength of 496 nm and an emission wavelength of 517 nm for detecting calcein. The concentration of calcein delivered into the skin tissue was determined from the spectrofluorometric readings by comparison to a standard curve. Skin samples containing melanin were also analyzed by is spectrophotometry to determine the effective concentration of a delivered beneficial compound into a selected tissue. […] The sonicated sample was then centrifuged for 10 minutes in a microcentrifuge at 14,000×g, and the resulting supernatant was measured by spectrophotometry at an absorption wavelength of 300 nm for detecting absorption by melanin. The concentration of melanin delivered into the skin tissue was determined from the spectrophotometric readings by comparison to a standard curve.

[6] = tested on: hair follicles; assay: Liposome-mediated delivery of melanin to hair follicles in white-haired mouse skin histoculture; type: cell-based
Description: To that end, liposomes were prepared by sonication. About 20 mg of egg phosphatidycholine was rotary evaporated with a vacuum drier from a chloroform solution to form a thin film on the walls of a 5 ml round-bottomed flask for about 1 hour. The dried thin film phospholipid was suspended in about 0.5 ml phosphate buffered saline (pH 7.4) on a vortex mixer and then sonicated with a Branson probe-type sonicator fitted with a microtip at power level 3 for about 8 minutes. Then 0.5 ml of a solution of melanin (10 mg/ml) was entrapped with the above suspension by sonication for about an additional 4 minutes. Liposomes were separated from the non-entrapped melanin by gel-filtration on a Sepharose 4B column equilibrated with phosphate buffered saline.
Pieces of outbred white-haired mouse skin derived from 1-2 weeks-old animals (about 2×5×2 mm each) were harvested under a dissection microscope. […] Liposome interaction with the skin was initiated after about 24 hours of histoculture. Mouse skin histocultures were incubated for about 12 hours with liposomes. […]
The skin histocultures were counter-stained with the dye 2′,7′-bis(2-carboxyethyl)-5 which is activated to fluorescence by nonspecific esterases present only in living cells. After the tissues were thoroughly washed, the specimens were analyzed with a Nikon fluorescence microscope equipped with a fluorescein cube. […]

[7] = tested on: hair follicles; assay: In vivo topical liposome-melanin coloring of regrowing hair in depilated white-haired mice; parameters: species or system mouse
Description: 3-4 week old white-haired mice were depilated by a mixture of bees wax and rosin gum. Topical application of liposome-melanin as described herein was started on day 6 after depilation. […] The skin surface was then washed with an excess of water and wipe-dried with a gauze pad. The out-growing hair was micro-photographed. The same concentration of naked melanin solution as entrapped into liposomes was used as the control. In another experiment, 3-4 week old white-haired mice were depilated by a mixture of bees wax and rosin gum. Topical application of liposome-melanin composition was started on day 10 after depilation. The melanin used in this experiment was from Biosource, SF, CA #MM-8A-1. The liposome-melanin composition was applied on the skin of mice twice per day for 3 days. The treated skin surface was then washed with an excess of water and wipe-dried with a gauze pad. The mice were then photographed. The same concentration of naked melanin solution as entrapped into liposomes was used as the control.

## C=C1/C(=C\C=C2/CCC[C@]3(C)[C@@H]([C@H](C)CCCC(C)(C)O)CC[C@@H]23)C[C@@H](O)C[C@@H]1O [1,25-dihydroxyvitamin D3]
[1]; topical
  prevention of alopecia induced by cytoxan or etoposide: prevents alopecia induced by cytoxan or etoposide

## O=P1(N(CCCl)CCCl)NCCCO1 (centres unmarked) [CTX, cyclophosphamide]
[2]
  other toxic effects in rat pups: No other toxic effects were noted
[2]; noted at day-7
  alopecia in rat pups: alopecia can be seen
[3]; intravenous
  patients with severe alopecia: 75-90%
[1]
  alopecia in young rats after treatment: develop alopecia

## Nc1ccn([C@@H]2O[C@H](CO)[C@@H](O)[C@@H]2O)c(=O)n1 [ara-C]
[1]
  alopecia in young rats after treatment: develop alopecia

## COc1cccc2c1C(=O)c1c(O)c3c(c(O)c1C2=O)C[C@@](O)(C(=O)CO)C[C@@H]3O[C@H]1C[C@H](N)[C@H](O)[C@H](C)O1 [doxorubicin]
[3]; human, in vivo
  hair loss in patients: 85-100%
[1]
  alopecia in young rats after treatment: develop alopecia

## O=C(O)CN(CC(=O)O)Cc1cc2c(cc1O)Oc1cc(O)c(CN(CC(=O)O)CC(=O)O)cc1C21OC(=O)c2ccccc21 [free calcein, calcein]
[4]; histoculture topically treated 48 hours
  delivery of calcein into hair follicles by topical use: rarely penetrated through the skin to stain the hair follicles
[4]; histoculture treated 48 hours, propidium iodide counterstain
  delivery of green fluorescent dye to hair follicles and shafts: very weak staining of a few hair follicles
[4]; skin histoculture incubated about 20 minutes
  delivery of fluorescent dye to hair follicles (confocal fluorescence microscopy): relatively low fluorescence with no preferential staining of any particular skin structure
[5]
  delivery of calcein into hair follicles and shafts (fluorescent microscopy): trapped in the stratum corneum and did not enter the hair shafts or follicles
[5]; outbred white-haired, 24 h
  calcein delivered in the hair follicles: about 1.4 ng/mm^2

## melanin [naked melanin]
[6]
  localization of melanin in hair follicles and hair shafts (H&E paraffin section): no “free” melanin can be observed either in hair shafts or the hair follicular cells
[7]; topical once per day for 4 days from day 6 after depilation
  coloring of out-growing hair: No hair coloring is observed
[7]; topical twice per day for 3 days from day 10 after depilation
  coloring of regrown hair: regrown hair remained white
[5]
  melanin delivered to the hair follicles: less than 2.0 ug/mm^2
